{"source": "patent US9688668B2", "about": "“Long chain base sphingosine kinase inhibitors” (UNIVERSITY OF VIRGINIA PATENT FOUNDATION, priority 2012, dated 2017)", "origin": "cited, not measured here", "target": "sphingosine kinases", "conditions": "background statement; read-out: typical KI value; cited from earlier work"}
{"smiles": "CCCCCCCCCCCCCCC[C@H](O)[C@@H](N)CO", "note": "(racemic) [DL-threo-dihydrosphingosine]", "values": [{"measurement": "Ki", "result": "< 10", "unit": "µM"}]}
